Earlier results in US20190117852A1, “IMPROVEMENTS IN STENTS FOR THE RELEASE OF ACTIVE PRINCIPLES” (CID S.p.A., priority 2016, published 2019).

Details: duration of release; correlated to complete in vitro release at 30 hours

## CO[C@H]1C[C@@H]2CC[C@@H](C)[C@@](O)(O2)C(=O)C(=O)N2CCCC[C@H]2C(=O)O[C@H]([C@H](C)C[C@@H]2CC[C@@H](O)[C@H](OC)C2)CC(=O)[C@H](C)/C=C(\C)[C@@H](O)[C@@H](OC)C(=O)[C@H](C)C[C@H](C)/C=C/C=C/C=C/1C [Sirolimus]
  in vivo release after coronary implantation: greater than 30 days
